These results are taken from patent US9834542B2, “LXR modulators” (BRISTOL-MYERS SQUIBB COMPANY, priority 2013, dated 2017).

This assay has as its target T1, LXRβ (Homo sapiens, UniProt P55055).
T1 construct: Co-transfection expression plasmids, comprising full-length LXRα (pCMX-h LXRα[…] or LXRβ (pCMX-hLXRβ)); expressed in transfected cells; host or cells: CV-1 African Green Monkey Kidney Cells
T1 sequence (P55055 1-460): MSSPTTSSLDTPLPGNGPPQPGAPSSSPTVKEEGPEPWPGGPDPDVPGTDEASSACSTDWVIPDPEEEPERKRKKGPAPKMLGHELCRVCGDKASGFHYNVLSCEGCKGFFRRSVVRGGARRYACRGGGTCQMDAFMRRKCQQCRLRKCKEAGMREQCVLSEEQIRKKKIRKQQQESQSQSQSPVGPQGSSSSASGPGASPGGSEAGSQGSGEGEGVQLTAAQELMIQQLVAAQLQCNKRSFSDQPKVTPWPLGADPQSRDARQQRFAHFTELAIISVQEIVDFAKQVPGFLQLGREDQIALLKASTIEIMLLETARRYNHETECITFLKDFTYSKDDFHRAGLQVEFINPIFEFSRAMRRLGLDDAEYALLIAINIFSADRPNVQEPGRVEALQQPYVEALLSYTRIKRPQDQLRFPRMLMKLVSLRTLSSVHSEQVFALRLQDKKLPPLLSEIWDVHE
T1 sequence (P19793 1-462 partner): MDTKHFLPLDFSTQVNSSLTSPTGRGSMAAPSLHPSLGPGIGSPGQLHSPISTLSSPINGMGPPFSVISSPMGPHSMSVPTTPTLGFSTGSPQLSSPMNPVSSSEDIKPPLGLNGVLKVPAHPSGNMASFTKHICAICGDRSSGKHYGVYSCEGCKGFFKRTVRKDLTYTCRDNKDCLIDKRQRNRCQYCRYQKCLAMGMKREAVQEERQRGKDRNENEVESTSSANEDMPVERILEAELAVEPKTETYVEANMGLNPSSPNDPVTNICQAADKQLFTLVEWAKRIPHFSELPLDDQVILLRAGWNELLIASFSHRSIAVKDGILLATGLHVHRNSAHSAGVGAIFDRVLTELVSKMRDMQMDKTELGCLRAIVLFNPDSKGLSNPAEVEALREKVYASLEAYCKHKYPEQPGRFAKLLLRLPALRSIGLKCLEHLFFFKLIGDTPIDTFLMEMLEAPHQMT
Description: Co-transfection assay (LXRE luciferase reporter), LXRβ. Format: cell-based. The note with it: for EC50: CV-1 cells transfected with pCMX-hLXRβ and LXREx1-Tk-Luciferase, 20 hours incubation; for Emax: LXRβ co-transfection, relative to high control 1-(2,4-difluorobenzyl)-2-oxo-6-(4-phenoxyphenyl)-4-(trifluoromethyl)-1,2-dihydropyridine-3-carbonitrile, read-out: % Efficacy. A digest of the protocol: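 CV-1 cells transiently co-transfected with full-length human LXRβ (or LXRα), LXREx1-Tk-luciferase reporter and β-galactosidase control; compound added (10 μM final in single-point, 11-point ½-log curves, ≤0.5% DMSO) for 20 h at 37 °C. Luciferase read; EC50 from four-parameter fit, efficacy relative to reference agonist high control.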
For orientation: In a reporter assay the amount or activity of a reporter protein is the signal.

By EC50 is commonly meant the concentration that produces a half-maximal response.

`Cc1nc(C(F)F)cn1-c1ccc(-c2cccc(S(C)(=O)=O)c2)cc1-n1nncc1-c1ccc(Cl)cc1Cl` [Example 163, 5-(2,4-dichlorophenyl)-1-{4-[4-(difluoromethyl)-2-methyl-1H-imidazol-1-yl]-3′-(methylsulfonyl)biphenyl-3-yl}-1H-1,2,3-triazole]: the concentration giving a half-maximal response (EC50) worked out at 1600 nM and the Emax came to 61%.
In the case of `Cc1nc(C(F)(F)C(C)C)cn1-c1ccc(-c2cccc(S(C)(=O)=O)c2)cc1-n1nncc1-c1ccc(OC(F)(F)F)cc1` [Example 164, 1-{4-[4-(1,1-difluoro-2-methylpropyl)-2-methyl-1H-imidazol-1-yl]-3′-(methylsulfonyl)biphenyl-3-yl}-5-{4-[(trifluoromethyl)oxy]phenyl}-1H-1,2,3-triazole], it took 203 nM to reach a half-maximal effect (EC50) and the Emax was 59%.
The matching figures for `Cc1nc(C(C)(F)F)cn1-c1ccc(-c2cccc(S(C)(=O)=O)c2)cc1-n1nncc1-c1ccc(OC(F)(F)F)cc1` [Example 165, 1-{4-[4-(1,1-difluoroethyl)-2-methyl-1H-imidazol-1-yl]-3′-(methylsulfonyl)biphenyl-3-yl}-5-{4-[(trifluoromethyl)oxy]phenyl}-1H-1,2,3-triazole]: 643 nM and 66%.
The matching figures for `COc1ccc(-c2cnnn2-c2cc(-c3cccc(S(C)(=O)=O)c3)ccc2-n2cc(C(F)F)nc2C)cc1` [Example 166, 1-{4-[4-(difluoromethyl)-2-methyl-1H-imidazol-1-yl]-3′-(methylsulfonyl)biphenyl-3-yl}-5-[4-(methyloxy)phenyl]-1H-1,2,3-triazole]: 1650 nM and 78%.
With `Cc1nc(C(F)F)cn1-c1ccc(-c2cccc(S(C)(=O)=O)c2)cc1-n1nncc1-c1ccc2c(c1)OC(F)(F)O2` [Example 167, 5-(2,2-difluoro-1,3-benzodioxol-5-yl)-1-{4-[4-(difluoromethyl)-2-methyl-1H-imidazol-1-yl]-3′-(methylsulfonyl)biphenyl-3-yl}-1H-1,2,3-triazole], the EC50 came to 779 nM and the Emax was 107%.
Regarding `Cc1ccc(-c2cnnn2-c2cc(-c3cccc(S(C)(=O)=O)c3)ccc2-n2cc(C(F)F)nc2C)cc1` [Example 168, 1-{4-[4-(difluoromethyl)-2-methyl-1H-imidazol-1-yl]-3′-(methylsulfonyl)biphenyl-3-yl}-5-(4-methylphenyl)-1H-1,2,3-triazole], the EC50 came to 945 nM and the Emax amounted to 81%.
Regarding `Cc1nc(C(F)F)cn1-c1ccc(-c2cccc(S(C)(=O)=O)c2)cc1-n1nncc1-c1ccc(OC(F)(F)F)c(F)c1` [Example 169, 1-{4-[4-(difluoromethyl)-2-methyl-1H-imidazol-1-yl]-3′-(methylsulfonyl)biphenyl-3-yl}-5-{3-fluoro-4-[(trifluoromethyl)oxy]phenyl}-1H-1,2,3-triazole], a half-maximal effect (EC50) was put at 570 nM and the Emax is 93%.
On the same counts, the results for `CS(=O)(=O)c1cccc(-c2ccc(-n3cnc(C(F)F)c3)c(-n3nncc3-c3ccc(OC(F)(F)F)cc3)c2)c1` [Example 170, 1-{4-[4-(difluoromethyl)-1H-imidazol-1-yl]-3′-(methylsulfonyl)biphenyl-3-yl}-5-{4-[(trifluoromethyl)oxy]phenyl}-1H-1,2,3-triazole] are 3330 nM and 92%.
As to `Cc1nc(C(F)F)cn1-c1ccc(-c2cccc(S(C)(=O)=O)c2)cc1-n1nncc1-c1ccccc1` [Example 171, 1-{4-[4-(difluoromethyl)-2-methyl-1H-imidazol-1-yl]-3′-(methylsulfonyl)biphenyl-3-yl}-5-phenyl-1H-1,2,3-triazole], the concentration giving a half-maximal response (EC50) came to 3090 nM and the Emax amounted to 60%.
On the same counts, the results for `Cc1nc(C(F)F)c(Cl)n1-c1ccc(-c2cccc(S(C)(=O)=O)c2)cc1-n1nncc1-c1ccc(OC(F)(F)F)cc1` [Example 172, 1-{4-[5-chloro-4-(difluoromethyl)-2-methyl-1H-imidazol-1-yl]-3′-(methylsulfonyl)biphenyl-3-yl}-5-{4-[(trifluoromethyl)oxy]phenyl}-1H-1,2,3-triazole] are 1030 nM and 159%.
Turning to `Cc1nc(C(F)F)c(Cl)n1-c1ccc(-c2cc(F)c(CO)c(S(C)(=O)=O)c2)cc1-n1nncc1-c1ccc(OC(F)(F)F)cc1` [Example 173, {4′-[5-chloro-4-(difluoromethyl)-2-methyl-1H-imidazol-1-yl]-3-fluoro-5-(methylsulfonyl)-3′-(5-{4-[(trifluoromethyl)oxy]phenyl}-1H-1,2,3-triazol-1-yl)biphenyl-4-yl}methanol], the response was half-maximal at 264 nM (EC50) and the Emax came to 148%.
On the same counts, the results for `Cc1nc(C(C)(F)F)cn1-c1ccc(-c2cc(F)c(CO)c(S(C)(=O)=O)c2)cc1-n1nncc1-c1ccc(OC(F)(F)F)cc1` [Example 174, {4′-[4-(1,1-difluoroethyl)-2-methyl-1H-imidazol-1-yl]-3-fluoro-5-(methylsulfonyl)-3′-(5-{4-[(trifluoromethyl)oxy]phenyl}-1H-1,2,3-triazol-1-yl)biphenyl-4-yl}methanol] are 467 nM and 88%.
The matching figures for `CNS(=O)(=O)c1cccc(-c2ccc(-n3cc(C(C)(F)F)nc3C)c(-n3nncc3-c3ccc(OC(F)(F)F)cc3)c2)c1` [Example 175, 4′-[4-(1,1-difluoroethyl)-2-methyl-1H-imidazol-1-yl]-N-methyl-3′-(5-{4-[(trifluoromethyl)oxy]phenyl}-1H-1,2,3-triazol-1-yl)biphenyl-3-sulfonamide]: 315 nM and 79%.
On the same counts, the results for `Cc1nc(C(C)(F)F)cn1-c1ccc(-c2cccc(S(C)(=O)=O)c2)cc1-n1nncc1-c1ccc(Cl)cc1` [Example 176, 5-(4-chlorophenyl)-1-{4-[4-(1,1-difluoroethyl)-2-methyl-1H-imidazol-1-yl]-3′-(methylsulfonyl)biphenyl-3-yl}-1H-1,2,3-triazole] are 792 nM and 68%.
On to `CCS(=O)(=O)c1cccc(-c2ccc(-n3cc(C(C)(F)F)nc3C)c(-n3nncc3-c3ccc(OC(F)(F)F)cc3)c2)c1` [Example 177, 1-{4-[4-(1,1-difluoroethyl)-2-methyl-1H-imidazol-1-yl]-3′-(ethylsulfonyl)biphenyl-3-yl}-5-{4-[(trifluoromethyl)oxy]phenyl}-1H-1,2,3-triazole], for which the EC50 worked out at 894 nM and the Emax worked out at 78%.
The matching figures for `Cc1nc(C(C)(F)F)cn1-c1ccc(-c2ccc(CO)c(S(C)(=O)=O)c2)cc1-n1nncc1-c1ccc(OC(F)(F)F)cc1` [Example 178, {4′-[4-(1,1-difluoroethyl)-2-methyl-1H-imidazol-1-yl]-3-(methylsulfonyl)-3′-(5-{4-[(trifluoromethyl)oxy]phenyl}-1H-1,2,3-triazol-1-yl)biphenyl-4-yl}methanol]: 638 nM and 89%.
The matching figures for `COCc1c(F)cc(-c2ccc(-n3cc(C(C)(F)F)nc3C)c(-n3nncc3-c3ccc(OC(F)(F)F)cc3)c2)cc1S(C)(=O)=O` [Example 179, 1-{4-[4-(1,1-difluoroethyl)-2-methyl-1H-imidazol-1-yl]-3′-fluoro-4′-[(methyloxy)methyl]-5′-(methylsulfonyl)biphenyl-3-yl}-5-{4-[(trifluoromethyl)oxy]phenyl}-1H-1,2,3-triazole]: 620 nM and 105%.
